Test results from patent US20220125837A1, “METHODS FOR CONTROLLED ELIMINATION OF THERAPEUTIC CELLS” (Bellicum Pharmaceuticals, Inc., priority 2014, published 2022).
Where two headings read alike, the source gives them in different places.

Assays:
293 cells = assay: SRα-SEAP assay in 293 cells with FRBl2-tagged CAR and iCaspase-9: rapamycin or rimiducid; assay type: cell-based, human; settings: overnight
Method: Two tandem FRB, domains were fused to either either a 1st generation Her2-CAR or to a 1st generation CD19-CAR co-expressing inducibleiCaspase-9. 293 cells were transiently transfected with a constitutive reporter plasmid, SRα-SEAP, along with normalized levels of expression plasmids encoding Her2-CAR-FRBl2, iCaspase-9, Her2-CAR-FRBl2+iCasp9, iC9-CAR(19).FRBl2 (coexpressing both CD19-CAR-FRBl2 and iCaspase9), or control vector. […] After overnight incubation with drugs, SEAP activity was determined. […] This dose-dependent decrease required the presence of both the FRB-tagged CAR and the FKBP12-tagged Caspase-9. […] Moreover, on- or off-target-mediated CAR clustering should increase the sensitivity of killing primarily at the site of scFv engagement.
24 hours following transfection (4.1), 293T cells are split to 96-well plates and incubated with dilutions of dimerizing drugs. Briefly, 100 μL media is added to each well of a 96-well flat-bottom plate. Drugs are diluted in tubes to a concentration 4× the top concentration in the gradient to be place on the plate. […]
24 hours after drug stimulation, 96-well plates are wrapped to prevent evaporation and incubated at 65° C. for 2 hours to inactivate endogenous and serum phosphatases while the heat-stable SeAP reporter remains (3, 12, 14). […] Phosphatase activity is measured by fluorescence with excitation at 355 nm and emission at 460 nm. […]

cells = assay: AP1903 needed in vitro for effective signaling of cells; assay type: cell-based
Method: This equates to 16-160 μg/L or ˜0.016-1.6 mg/kg (1.6-160 μg/kg).

CD3+ΔCD19+ cells = assay: CASPALLO phase I clinical trial: AP1903 in patients with GvHD after iCasp9 T cells; assay type: in vivo, human
Method: Prior to administration, the calculated dose was diluted to 100 mL in 0.9% normal saline for infusion.

[1] = cited from earlier work
human CD3+CD19+ T cells = assay: AP1903 dose-dependent elimination in vivo of iCasp9-transduced T cells; parameters: species or system immune deficient mice (NSG); settings: mouse
Method: The Caspase-9 polypeptide has a dose-response curve in vivo, which could be used to eliminate a variable fraction of T cells expressing the Caspase-9 polypeptide.
T cells were transduced with SFG-iCasp9-D330E-2A-ΔCD19 retrovirus and injected i.v. into immune deficient mice (NSG). […] After an additional 24 hours, mice were sacrificed and lymphocytes from the spleen (A) were isolated and analyzed by flow cytometry for the frequency of human CD3+CD19+ T cells.

[2] = molecular target: wt FRB (K2095 T2098 W2101) (Homo sapiens, UniProt P42345+P62942); settings: cited from earlier work
FRB-PLF = FRB-PLF (Homo sapiens, UniProt P42345+P62942, K2095P/T2098L/W2101F); settings: cited from earlier work
FRB-KTF = FRB-KTF (Homo sapiens, UniProt P42345+P62942, W2101F); settings: cited from earlier work
primary T cells = assay: AP1903-dependent cytotoxicity in primary T cells transduced with caspase variants; assay type: cell-based, human; settings: AP1903 at Day 0 and day 4
Method: The effects of various caspase polypeptides at mostly single copy in primary T cells was assayed. This may reflect more accurately how these suicide genes will be used therapeutically.
Primary T cells from healthy donors (n=6) were transduced with retrovirus encoding mutant or wild-type iCasp9 or iCasp9-D330A, and the ΔCD19 cell surface marker. Following transduction, iCasp9-transduced T cells were purified using CD19-microbeads and a magnetic column.

wt FRB (K2095 T2098 W2101), sequence (P62942 2-108): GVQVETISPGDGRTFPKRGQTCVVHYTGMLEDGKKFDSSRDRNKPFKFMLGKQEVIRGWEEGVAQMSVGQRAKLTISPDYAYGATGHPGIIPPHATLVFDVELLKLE
wt FRB (K2095 T2098 W2101), sequence (P42345 2012-2144): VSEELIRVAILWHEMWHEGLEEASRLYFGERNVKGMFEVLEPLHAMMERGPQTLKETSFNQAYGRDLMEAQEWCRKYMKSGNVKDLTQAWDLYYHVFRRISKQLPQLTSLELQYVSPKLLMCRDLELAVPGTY
FRB-PLF, sequence (P42345 2012-2144 K2095P/T2098L/W2101F): as the sequence (P42345 2012-2144) above, with K84P, T87L, W90F counted along it
FRB-PLF, sequence (P62942 2-108): as the sequence (P62942 2-108) above
FRB-KTF, sequence (P42345 2012-2144 W2101F): as the sequence (P42345 2012-2144) above, with W90F counted along it
FRB-KTF, sequence (P62942 2-108): as the sequence (P62942 2-108) above

CC[C@H](C(=O)N1CCCC[C@H]1C(=O)O[C@H](CCc1ccc(OC)c(OC)c1)c1cccc(OCC(=O)NCCNC(=O)COc2cccc([C@@H](CCc3ccc(OC)c(OC)c3)OC(=O)[C@@H]3CCCCN3C(=O)[C@@H](CC)c3cc(OC)c(OC)c(OC)c3)c2)c1)c1cc(OC)c(OC)c(OC)c1 (relative stereo) [AP1903, 2-Piperidinecarboxylic acid, 1-[(2S)-1-oxo-2-(3,4,5-trimethoxyphenyl)butyl]-, 1,2-ethanediylbis[imino(2-oxo-2,1-ethanediyl)oxy-3,1-phenylene[(1R)-3-(3,4-dimethoxyphenyl)propylidene]] ester, [2S-[1(R*),2R*[S*[S*[1(R*),2R*]]]]]-(9Cl)]
SEAP activity, % of normal levels (293 cells; at much lower levels of drug): about 20%
amount needed in vitro for effective signaling of cells (cells): 10 to 100 nM
ablation of CD3+ΔCD19+ cells (CD3+ΔCD19+ cells; patients with grade I/II aGVHD, 0.4 mg/kg 2 h infusion, within 30 minutes of infusion): > 90%
time to resolution of skin and liver aGvHD (CD3+ΔCD19+ cells; two patients): ≤ 24 h
further change of CD3+ΔCD19+ cells (CD3+ΔCD19+ cells; within 24 hours): further log reduction
plasma level as % of maximal concentration ([1]; 2 hours post-dose): ~7%
plasma level as % of maximal concentration ([1]; 10 hours post-dose): ~1%
well-tolerated doses ([1]; Phase I study): up to 1 mg/kg
dose sufficient to eliminate most modified T cells in vivo (human CD3+CD19+ T cells): 0.5 mg/kg

CO[C@@H]1C[C@H](C[C@@H](C)[C@@H]2CC(=O)[C@H](C)/C=C(\C)[C@@H](O)[C@@H](OC)C(=O)[C@H](C)C[C@H](C)/C=C/C=C/C=C(\C)[C@H](OC(C)C)C[C@@H]3CC[C@@H](C)[C@@](O)(O3)C(=O)C(=O)N3CCCC[C@H]3C(=O)O2)CC[C@H]1O [R-Isopropoxyrapamycin]
EC50 [2]: ~300 nM
EC50 (FRB-PLF): ~8.5 nM

CO[C@H]1C[C@@H]2CC[C@@H](C)[C@@](O)(O2)C(=O)C(=O)N2CCCC[C@H]2C(=O)O[C@H]([C@H](C)C[C@@H]2CC[C@@H](O)[C@H](OC)C2)CC(=O)[C@H](C)/C=C(\C)[C@@H](O)[C@@H](OC)C(=O)[C@H](C)C[C@H](C)/C=C/C=C/C=C/1C [Rapamycin]
maximal decrease of SEAP activity (293 cells; FRB-tagged CAR plus FKBP12-tagged Caspase-9): ~50%

S-Butanesulfonamidorap
EC50 (FRB-KTF): > 200 nM

B1: F404Y: chimeric modified Caspase-9 polypeptide (protein)
chain: VDGFGDVGALESLRGNADLAYILSMEPCGHCLIINNVNFCRESGLRTRTGSNIDCEKLRRRFSSLHFMVEVKGDLTAKKMVLALLELARQDHGALDCCVVVILSHGCQASHLQFPGAVYGTDGCPVSVEKIVNIFNGTSCPSLGGKPKLFFIQACGGEQKDHGFEVASTSPEDESPGSNPEPDATPFQEGLRTFDQLDAISSLPTPSDIFVSYSTFPGFVSWRDPKSGSWYVETLDDIFEQWAHSEDLQSLLLRVANAVSVKGIYKQMPGCYNFLRKKLFFKTSASRA
killing of target T cells within 10 days, in words (primary T cells): indistinguishable from wild type Caspase-9 polypeptide or D330A
